Results on seven compounds are retold here after PubChem BioAssay AID2179 (Vanderbilt High Throughput Screening Facility, 2009).

The structures appear in SMILES notation. Activity calls are given as the source filed them. No rule for the calls is given here.

This test deals with Metabotropic glutamate receptor 4 (Rattus norvegicus) (UniProt P31423). Kind of test: PubChem AID 2179. Conditions: HEK/GIRK rat mGluR4, thallium flux, glutamate CRC fold-shift.
Chain of Metabotropic glutamate receptor 4 (Rattus norvegicus) (P31423 whole entry, looked up): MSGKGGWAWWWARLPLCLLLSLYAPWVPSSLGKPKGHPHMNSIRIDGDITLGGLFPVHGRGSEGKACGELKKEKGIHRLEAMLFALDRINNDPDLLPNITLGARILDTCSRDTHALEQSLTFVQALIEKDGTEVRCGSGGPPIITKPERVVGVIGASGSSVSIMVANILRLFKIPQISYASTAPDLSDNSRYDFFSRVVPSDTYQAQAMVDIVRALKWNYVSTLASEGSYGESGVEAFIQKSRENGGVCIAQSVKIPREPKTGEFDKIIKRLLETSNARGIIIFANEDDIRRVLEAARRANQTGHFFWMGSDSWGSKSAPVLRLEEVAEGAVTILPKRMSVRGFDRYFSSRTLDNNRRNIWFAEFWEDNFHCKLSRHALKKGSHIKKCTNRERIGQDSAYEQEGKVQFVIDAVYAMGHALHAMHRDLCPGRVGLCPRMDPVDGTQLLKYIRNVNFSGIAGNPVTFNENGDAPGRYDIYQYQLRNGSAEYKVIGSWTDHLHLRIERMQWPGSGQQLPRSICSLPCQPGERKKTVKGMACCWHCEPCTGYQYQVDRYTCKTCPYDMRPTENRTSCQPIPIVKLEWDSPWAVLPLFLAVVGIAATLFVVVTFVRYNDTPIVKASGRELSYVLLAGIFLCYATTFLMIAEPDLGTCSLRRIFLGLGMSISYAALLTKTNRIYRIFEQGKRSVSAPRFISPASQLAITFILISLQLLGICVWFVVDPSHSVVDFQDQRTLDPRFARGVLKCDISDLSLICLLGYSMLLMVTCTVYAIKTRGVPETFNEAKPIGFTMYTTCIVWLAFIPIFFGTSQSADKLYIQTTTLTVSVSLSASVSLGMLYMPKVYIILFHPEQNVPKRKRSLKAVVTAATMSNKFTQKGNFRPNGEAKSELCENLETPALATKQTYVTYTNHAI
On to `COc1cc(NC(=O)c2ccccn2)ccc1Cl`, for which the glutamate EC50 in presence of 30 uM compound (lower = stronger potentiation) was 307 nM.
In the case of `COc1cc(NC(=O)c2ccccn2)ccc1F`, the glutamate EC50 in presence of 30 uM compound (lower = stronger potentiation) was 409 nM.
Turning to `COc1cc(NC(=O)c2ccccn2)ccc1C`, the glutamate EC50 in presence of 30 uM compound (lower = stronger potentiation) is 330 nM.
Consider `O=C(Nc1ccc(F)c(C(F)(F)F)c1)c1ccccn1`, for which the glutamate EC50 in presence of 30 uM compound (lower = stronger potentiation) was 4010 nM (inactive).
Turning to `O=C(Nc1ccc(Cl)c(C(F)(F)F)c1)c1ccccn1`, the glutamate EC50 in presence of 30 uM compound (lower = stronger potentiation) is 5820 nM (inactive).
Turning to `O=C(Nc1cccc(Cl)c1)c1ccccn1`, the glutamate EC50 in presence of 30 uM compound (lower = stronger potentiation) is 368 nM.
On to `COc1ccc(NC(=O)c2ccccn2)cc1Cl`, for which the glutamate EC50 in presence of 30 uM compound (lower = stronger potentiation) was 1180 nM.
